{"source": "patent US8648050B2", "about": "(University of Mississippi, priority 2011, dated 2014)", "key": {"C. albicans ATCC 44858": {"tested_on": "C. albicans ATCC 44858", "assay": "Murine Candida albicans systemic infection model (survival, tissue burden)", "format": "in vivo, Balb/c mice", "experimental": "Survival in an Infection Model: Evaluation of efficacy was performed in a murine Candida albicans systemic infection model. For each experiment, an isolate of C. albicans ATCC 44858 was thawed and then incubated overnight on Sabouraud dextrose agar (Unipath Limited). One colony was transferred into 25 mL of Sabouraud dextrose broth (Unipath Limited). The broth was incubated on an orbital mixer for 8 hours at 37° C., centrifuged to pellet the organisms, and then washed and resuspended in saline. Density was adjusted using optical density at 490 nm. Initial studies were performed in which 0.15-0.2 mL saline containing this Candida strain over a range of densities was injected intravenously to determine the optimum inoculum. The 90% lethal dose (LD90) was defined as the inoculum of the organism that caused 90% mortality 10 days post-infection. The inocula for the all isolates are estimated at 3-5×10^8 CFU/mL. These inocula were used in this study.\nSpecific-pathogen-free Balb/c mice (age 12-20 weeks) were obtained from IFFA Credo (L'Arbresle, France). Female mice were infected with 0.15-0.2 mL of C. albicans inoculum (4×10^8 CFU/mL) by injection into the lateral tail vein and then returned to their home cages. Post-infection viability counts were performed to ensure the correct inoculum had been given. […] At time of death or animal sacrifice, vital organs (liver, spleen, heart, bladder, muscle) were isolated and transferred into 2 mL cold sterile phosphate-buffered saline. Samples were frozen at −80° C. until analysis. At batch processing time, each sample was thawed and weighed. The organs were divided into 2 batches. Organs in one batch were homogenized in a tissue grinder for 14-30 seconds and then diluted 1:10, 1:100, and 1:1000. A 100 μL aliquot of each sample was plated on Sabourauds dextrous agar and incubated at 37° in a humidified incubator. Plates were examined daily for 7 days, and colony counts were recorded from all plates each day. The second batch of organ tissue was evaluated microscopically. Leukopenia was not induced by intraperitoneal administration of cyclophosphamide at 100 mg/kg 4 days before C. albicans inoculation due to the overall success of the model and the desire to maintain competency of the immune system.\nStatistical Analysis: Animal survival between treated and untreated infected animals was selected as the primary outcome measure."}, "[1]": {"assay": "In vivo renal & hemodynamic assessment", "set-up": "species or system Sprague-Dawley rats", "excerpt": "In vivo renal & hemodynamic Assessment: Sprague-Dawley (Harlan Sprague Dawley) rats (224-249 g) were housed in a temperature-controlled room on a 12:12-h light-dark cycle and fed standard chow (Harlan Teklad; Madison, Wis.) and water ad libitum for a period of at least 1 week before surgical procedures and experimental treatment. All procedures and experimental designs were in accordance with the guidelines of the American Association for Accreditation of Laboratory Animal Care (AAALAC) and approved by the University of Mississippi Medical Center's Institutional Animal Care and Use Committee. Animals were anesthetized using isoflurane delivered by an anesthesia machine (Vaporizer for Forane Anesthetic: Ohio Medical Products, Madison, Wis.). A midline lower abdominal incision was made, and the bladder was cannulated with flare-tipped PE-90 tubing for urine collection. Catheters of heat-stretched PE-50 tubing were inserted into the left femoral artery and right femoral vein for blood sampling and blood pressure monitoring. After implantation, each catheter was filled with a 50:50 solution of heparin and saline and exteriorized at the back of the neck. All animals were instrumented with a specially made Silastic catheter and steel bladder as described by Gellai and Valtin for renal clearance measurements (5). On complete instrumentation, all animals were allowed to recover for a period of 4 days.\nDoses studied for assessment of renal toxicity range started at 1 mg/kg as a single dose infused at 0.015 mL/min over 1 hour. Incremental increases in dose were performed until 2 mg/kg was achieved. That dose was deemed to be nephrotoxic on the basis of a 16% reduction in mean glomerular filtration rate (GFR). […] In experimental studies, animals were treated with saline for up to 1 day and then placed in modified restraining cages for renal function measurements. Each animal served as their own control, prior to receiving AmB formulations. […] The femoral vein catheter was then connected to an infusion pump. Isotonic saline containing sodium [^125I]iothalamate and para-aminohippurate (PAH) was infused intravenously at a fixed rate of 3 mL/h After a 60-minute stabilization period, two 20-minute urine collections were obtained, followed by collection of blood samples. Urine volume was determined gravimetrically. Sodium and potassium concentrations in plasma and urine were measured by flame photometry. Glomerular filtration rate and effective renal plasma flow were calculated from the radioactivity of ^125I and concentration of PAH, respectively, in plasma and urine. PAH concentration was determined colorimetrically. Arterial pressure was monitored in conscious animals with a pressure transducer connected to a Grass model 7B chart recorder for continuous recording. […]"}, "[2]": {"tested_on": "IL-1β expression by THP-1 cells", "assay": "In vitro infusion related reaction assay (IL-1β release, ELISA)", "conditions": "FIG. 3 or 9", "description": "Cells are then incubated for about 2 hours. Supernatants are collected from each well after three freeze-thaws and stored at about −70° C. until assay. Samples are assayed for IL-1β using an enzyme-linked immunosorbent assay (Cistron Biotechnology; Pine Brook, N.J.) (ELISA). The procedure involves a four-step test carried out in microtiter wells which are coated with IL-1β specific monoclonal antibody. […] There is no cross-reactivity for IL-1α, IL-2, TNF-α or interferon. […] Data are the mean of duplicate assays and are expressed in pg/mL on the basis of standards supplied by the manufacturer.\nSupernatants were collected from each well after three freeze-thaws cycles and stored at −80° C. until assayed. Samples were assayed for interleukin-1β (IL-1β) using an enzyme-linked immunosorbent assay (Cistron Biotechnology; Pine Brook, N.J.)."}, "[3]": {"assay": "Stability of AmBHP to pH and temperature during work up", "format": "physicochemical", "excerpt": "As a point in fact, AmBHP can be obtained with elution in ethanol containing 1% 1 N HCL (0.01 N HCl in water has a pH ˜2) if the pH during post-column work up is maintained between 5-7. Nor is the apparent purity of AmBHP adversely affected by a short exposure to pH ˜11, as occurs during solubilization with deoxycholate. However, at both extremes, AmBHP may degrade during evaporation of solvent under air/nitrogen or during lyophilization. […] During evaporation of solvent, the temperature of the heating block remained at about 40° C. or less. The presence of DMSO or DMF during drying/lyophilization or prolonged storage (even at −20° C.) may result in degradation."}, "Candida albicans": {"tested_on": "Candida albicans", "assay": "Antifungal susceptibility testing of HPLC fractions, NCCLS broth microdilution (Example 1)", "format": "cell-based", "experimental": "Test Isolates: One Candida albicans isolate, American Type Culture Collection (ATCC) strain 90028, is selected.\nAntifungal Susceptibility Testing: Sample MIC's are determined by broth microdilution according to NCCLS guidelines. Isolates are subcultured twice on potato dextrose agar (PDA) plates (Remei, Lenexa, Kans., USA). Fungal suspensions are prepared by transferring four to five colonies into about 5 mL of sterile about 0.9% saline. […] 100 uL of inoculum is added to each well of a microtiter tray containing 100 uL of serially diluted drug in RPMI solution. Sample concentrations of about 0.0039, about 0.0078, about 0.0156, about 0.0312, about 0.0624, about 0.125, about 0.25, about 0.5, about 1, about 2, and about 4 ug/mL are achieved. The trays are incubated in a humid, dark chamber for about 48 hours at about 35° C. […] MIC determinations are performed a minimum of two times with an additional run if the quantity of sample drug allowed for it. It is decided to determine the MFC on samples which achieved definitive MICs. After the MIC is read at 48-h, a 1 uL sample is withdrawn from each microtiter tray with a 96 pin replicator (Boekel, Feasterville, Pa.) and plated onto an RPMI agar plate. Samples are incubated in a humid, dark chamber for about 48 hours at about 35° C. MFC is determined by the complete lack of organism growth on the plate and recorded as the corresponding well in the MIC tray."}, "in vivo": {"assay": "in vivo", "conditions": "Balb/c, mouse"}, "[4]": {"conditions": "published, cited from earlier work"}}, "note": "Entries after “also recorded” stand apart in the source; their conditions may differ. Like-named read-outs stand apart in the source and are kept apart here.", "data": [{"smiles": "CC1/C=C/C=C/C=C/C=C/C=C/C=C/C=C/C(OC2OC(C)C(O)C(N)C2O)CC2OC(O)(CC(O)CC(O)C(O)CCC(O)CC(O)CC(=O)OC(C)C(C)C1O)CC(O)C2C(=O)O", "note": "(stereo not drawn) [AmBHP, Amphotericin B Highly Purified]", "values": [{"measurement": "mortality in infected mice", "setting": "C. albicans ATCC 44858; 0.5 mg/kg, 5 days post infection", "value": 20, "unit": "%"}, {"measurement": "activity against fungi in blood", "setting": "C. albicans ATCC 44858; blood", "value": "as effective against blood-borne fungi as was Pharma-Tek AmB"}, {"measurement": "colony counts from lungs and livers", "setting": "C. albicans ATCC 44858; compared to AmB", "value": "lower colony counts"}, {"measurement": "C. albicans tissue burden, efficacy", "setting": "C. albicans ATCC 44858; post-mortem liver, spleen, heart, kidney, lung and blood", "value": "comparable to those of Pharma-Tek® AmB and AmBLC"}, {"measurement": "other indices of cardio-renal function", "setting": "[1]; doses 10-fold outside the range of toxicity for AmB", "value": "not adversely affected"}, {"measurement": "mean GFR", "setting": "[1]; rats, 20 mg/kg over one hour", "value": 2.03, "unit": "mL/min"}, {"measurement": "renal function (GFR), decrease as percent control", "setting": "[1]; rats, 20 mg/kg over one hour", "value": 7.9, "unit": "%"}, {"measurement": "cytokine (IL-1β) response, comparison in words", "setting": "[2]", "value": "Less cytokine is expressed; also recorded: less of a cytokine response than did AmB; also recorded: failed to further increase cytokine release at concentrations as high as 21.6 μM"}, {"measurement": "stability on exposure to variations in pH", "setting": "[3]; pH between ˜2 and ˜11, short-term", "value": "does not appear to adversely affect AmB"}, {"measurement": "stability to temperature", "setting": "[3]; post-column work up", "value": "may degrade at high temperature"}, {"measurement": "toxicity by ability of THP-1 cells to exclude trypan blue", "setting": "THP-1 cells", "value": "less disruptive to the cell membrane than is commercial deoxycholate-formulated AmB"}, {"measurement": "general toxicity in vivo (apparent LD50 and survival of Candida-infected mice), less than generic or lipid-complexed AmB", "value": "roughly 2 fold"}]}, {"smiles": "CC1/C=C/C=C/C=C/C=C/C=C/C=C/C=C/C(OC2OC(C)C(O)C(N)C2O)CC2OC(O)(CC(O)CC(O)C(O)CCC(O)CC(O)CC(=O)OC(C)C(C)C1O)CC(O)C2C(=O)O", "note": "(stereo not drawn) [AmB, Amphotericin B]", "values": [{"measurement": "mean GFR", "setting": "[1]; rats, 2 mg/kg over one hour", "value": 1.92, "unit": "mL/min"}, {"measurement": "MIC", "setting": "Candida albicans; 100% inhibition vs control, 48 hours at 35° C., Candida albicans B311 (footnote 1), read-out: Median MIC100", "value": 0.25, "unit": "µg/mL"}, {"measurement": "MIC80", "setting": "Candida albicans; Candida albicans, 48 h, read-out: Median MIC80", "value": 0.1, "unit": "µg/mL"}, {"measurement": "MFC", "setting": "Candida albicans; Candida albicans, ATCC90028, fungicidal to all cells, no growth on agar plates, footnotes 1,2: C. albicans B311, ATCC 90028", "value": 0.625, "unit": "µg/mL"}, {"measurement": "LD50", "setting": "in vivo", "value": "~2.5", "unit": "mg/kg"}, {"measurement": "LD50, average parenteral dose", "setting": "[4]; OF-1, CD-1 and Balb/c mice", "value": 2.78, "unit": "mg/kg"}, {"measurement": "LD50, range", "setting": "[4]; OF-1, CD-1 and Balb/c mice", "value": "2.3 to 3.46", "unit": "mg/kg"}, {"measurement": "LD50", "setting": "[4]; fasting mice", "value": 1.51, "unit": "mg/kg"}, {"measurement": "LD50", "setting": "[4]; fed animals", "value": 2.38, "unit": "mg/kg"}]}]}
